Measured values reported in publication PMC11855230, “Oligoethylene Phosphoramidate‐Based Kinase Inhibitor Prodrugs – Solubility, Enzyme Inhibition, and Hydrolysis” (Chemistry (Weinheim an Der Bergstrasse, Germany), 2025).
Converted amounts (≈) assume the structure as drawn. “And” between values parts separate entries of the source, which are not always exact repeats. Equal entries are not always repeated. Where two headings read alike, the source gives them in different places. Marks after values point to notes of the source that are not given here.

Experiments:
[1] = design: method as in PMID 38923708; details: kinetic solubility, cited from earlier work
[2] = molecular target: T1, ROS proto‐oncogene 1 (ROS1) (Homo sapiens, UniProt P08922); test: ROS1 cell free enzyme (kinase) inhibition assay, luminescence; type: biochemical; details: 1 % DMSO, duplicates
T1 construct: purchased biomol
Description: (§1) Apart from solubility and self‐assembly, we investigate the inhibitory potential against the respectively targeted receptors.
(§2) Enzyme Binding Studies (ROS1):[21] ROS1 assays are performed with the following substances: Cer‐OEG2 , Cer‐OEG3 , Cer‐OEG8 , Cri‐OEG2 , Cri‐OEG3 and Cri‐OEG8 . The instructions are followed with some specifications: DTT (10 μL of 1 M DTT to 1 mL buffer) is added to the buffer solution and the assay is performed with 1 % DMSO in the final reaction volume. Serial dilutions of inhibitor (5 μL) are mixed with 20 μL enzyme (5 ng/μL), 5 μL of IGF‐1Rtide (1 mg/mL) and 1 μL ATP solution (500 μM) in a 96‐well plate. The blank contains no enzyme and no inhibitor. The positive control contains enzyme but no inhibitor. The receptor inhibitory rate is calculated from the luminescence as IC50. […] Luminescence is recorded on Promega GloMax Navigator Microplate Luminometer. Samples are prepared in duplicates.

[3] = Dynamic light scattering (DLS) of drug‐conjugates in water; type: physicochemical; details: for PDI / hydrodynamic diameter: DLS in water, at the concentration given per compound (Figures S2–S5); for hydrodynamic diameter d: DLS in water at critical solution concentration c sol, 25 °C
Description: To study, whether self‐assembly into micelles might have an effect on the solubility limit of the prodrugs, we perform dynamic light scattering (DLS) of the drug‐conjugates in water. […] Micelles below 6 nm (Cer‐OEG8 , Cri‐OEG3 , Cri‐OEG8 , Pal‐OEG3 , Rib‐OEG2 , and Rib‐OEG3 ) are potentially affected by renal clearance.
Dynamic Light Scattering (DLS): Possible self‐assemblies are investigated with DLS Nano‐Zetasizer (Malvern Instruments) at 25 °C with a scattering angle of 173° at λ=633 nm.

[4] = Solubility limit in water (kinetic solubility) by UV/Vis optical density at 600 nm; type: physicochemical; details: kinetic from dmso stock, absorption at 600 nm, read-out: c sol (water), solubility limit in water
Text: With all purified compounds in hand, we start to analyze the different properties of the conjugates and discuss the influence of the OEG‐chain lengths. We determine the solubility in water with UV/Vis spectroscopy by measuring the optical density at 600 nm. The absorption (A) is plotted against varying concentration (c) of the drug conjugates (see Figure S1). In the range, in which the drug and their conjugates are still soluble, A can be fitted linearly. When the solubility limit is reached, the drug crashes out of solution leading to scattering and reduced transmission manifesting a threshold, upon which the increase in absorption is fitted with a second line of higher slope. The intersection between the two linear fits gives the critical concentration for the kinetic solubility c sol. Detailed solubility plots can be found in the supporting information (see Figure S1). In our previous study with n=4, the solubility of all three kinase inhibitor prodrugs in water is improved over the native drug. However, the extent of improvement varies between the different kinase inhibitor prodrugs. For a better overview, we have included the performance of our previous study (see Figure 2).[21] […] We observe an improvement of solubility upon conjugation with all of our different OEG‐phosphates.
UV‐Vis Spectroscopy: Changes in solubility are measured with a Lambda 365 spectrometer by PerkinElmer supplied with UV WinLab software. Samples are prepared in water and placed in a 1 cm quartz cuvette.

[5] = pH dependent hydrolysis / drug release by HPLC; type: physicochemical; details: acetate buffer, pH 3, 37 °C
Text: The working principle of a prodrug is to improve solubility and circulation time and not necessarily to improve binding to the target. However, binding should of course become important when the prodrug has arrived at the designated site and the promoiety is cleaved to release the native drug. In case of the phosphoramidate linked OEG chains, release of the native drug is induced by hydrolysis at low pH.[21, 28, 29, 30, 31, 32] The stability of the phosphoramidate linker and therefore its half‐life depends on the chemical surrounding in the molecule.[28, 29] Since we only change distant substituents by varying the binding motif of the respective kinase inhibitor, we expect only minor influence on the rate of hydrolysis. We investigate the samples at pH 3, 4, 5, 6, and 7.4 over a course of 72 h at 37 °C using high pressure liquid chromatography (HPLC) (see Figure S10–13 and Table S1–11). […]
High Performance Liquid Chromatography (HPLC): Drug release is monitored on Agilent 1260 Infinity containing the following modules: G1311B Quat Pump, G1329B ALS, G1365D MWD VL in combination with a Jetstream 2 plus column thermostat. […] Flow rate is set to 0.3 mL/min and absorption is detected at 254 nm. […]
pH Dependent Hydrolysis:[21] […] Drug release percentages are calculated form the ratio of the peak area of drug and drug‐OEG conjugate for 0, 3, 6, 24, 48 and 72 h.

[6] = molecular target: T2, cyclin‐dependent kinase 4 (CDK4) (Homo sapiens, UniProt P11802); test: CDK4 cell free enzyme (kinase) inhibition assay, luminescence; type: biochemical; details: 1 % DMSO, duplicates
T2 construct: purchased biomol
Description: as §1
as §2, with “Binding Assays (CDK4):[21] […]” for “Binding Studies (ROS1):[21] ROS1 assays are performed with the following substances: Cer‐OEG2 , Cer‐OEG3 , Cer‐OEG8 , Cri‐OEG2 , Cri‐OEG3 and Cri‐OEG8 .”, “enzyme (10” for “enzyme (5”, “of 10x CDK4 substrate peptide” for “of IGF‐1Rtide (1 mg/mL)”

[7] = system: HeLa cells; test: Cell uptake in HeLa cells by confocal laser scanning microscopy (CLSM); type: cell-based; details: 25 μM, 23 h, excitation 405 nm
Description: Altogether an OEG chain length of n=4 seems to be favorable for producing prodrugs with improved solubility from kinase inhibitors. […] Here we therefore concentrate on Rib‐OEG4 . […] The drug and its conjugate are exited at 405 nm, leading to weak fluorescence of the drugs.
Uptake is followed by Confocal for 23 h using Leica TCS SP8 Lightning confocal microscope with an OnkoLab incubator chamber with a constant temperature of 37 °C and a 5 % CO2 atmosphere at 95 % humidity (gas flow: 0.1 L/min). Drug and drug‐OEG conjugate is excited at 405 nm.

[8] = system: HeLa cells; test: Cellular drug release in HeLa cells, LC–MS of cell lysate; type: cell-based; details: 20 μM, 48 h
Description: HeLa cells are treated with Rib‐OEG4 for 48 h followed by cell lysis. The cell lysate is analyzed with liquid chromatography‐mass spectrometry (LC–MS). […] This confirms that release of the drug is possible in cells and that the low pH in some of the cell compartments, such as the lysosomes, yield release of the effective drug molecule.
Cellular Drug‐Release with LC–MS: Drug release studies are performed according to previous publication with 20 μM of Rib‐OEG4 .[21]

[9] = values marked a from previous publication ref 21

T1 sequence (P08922 28-2347): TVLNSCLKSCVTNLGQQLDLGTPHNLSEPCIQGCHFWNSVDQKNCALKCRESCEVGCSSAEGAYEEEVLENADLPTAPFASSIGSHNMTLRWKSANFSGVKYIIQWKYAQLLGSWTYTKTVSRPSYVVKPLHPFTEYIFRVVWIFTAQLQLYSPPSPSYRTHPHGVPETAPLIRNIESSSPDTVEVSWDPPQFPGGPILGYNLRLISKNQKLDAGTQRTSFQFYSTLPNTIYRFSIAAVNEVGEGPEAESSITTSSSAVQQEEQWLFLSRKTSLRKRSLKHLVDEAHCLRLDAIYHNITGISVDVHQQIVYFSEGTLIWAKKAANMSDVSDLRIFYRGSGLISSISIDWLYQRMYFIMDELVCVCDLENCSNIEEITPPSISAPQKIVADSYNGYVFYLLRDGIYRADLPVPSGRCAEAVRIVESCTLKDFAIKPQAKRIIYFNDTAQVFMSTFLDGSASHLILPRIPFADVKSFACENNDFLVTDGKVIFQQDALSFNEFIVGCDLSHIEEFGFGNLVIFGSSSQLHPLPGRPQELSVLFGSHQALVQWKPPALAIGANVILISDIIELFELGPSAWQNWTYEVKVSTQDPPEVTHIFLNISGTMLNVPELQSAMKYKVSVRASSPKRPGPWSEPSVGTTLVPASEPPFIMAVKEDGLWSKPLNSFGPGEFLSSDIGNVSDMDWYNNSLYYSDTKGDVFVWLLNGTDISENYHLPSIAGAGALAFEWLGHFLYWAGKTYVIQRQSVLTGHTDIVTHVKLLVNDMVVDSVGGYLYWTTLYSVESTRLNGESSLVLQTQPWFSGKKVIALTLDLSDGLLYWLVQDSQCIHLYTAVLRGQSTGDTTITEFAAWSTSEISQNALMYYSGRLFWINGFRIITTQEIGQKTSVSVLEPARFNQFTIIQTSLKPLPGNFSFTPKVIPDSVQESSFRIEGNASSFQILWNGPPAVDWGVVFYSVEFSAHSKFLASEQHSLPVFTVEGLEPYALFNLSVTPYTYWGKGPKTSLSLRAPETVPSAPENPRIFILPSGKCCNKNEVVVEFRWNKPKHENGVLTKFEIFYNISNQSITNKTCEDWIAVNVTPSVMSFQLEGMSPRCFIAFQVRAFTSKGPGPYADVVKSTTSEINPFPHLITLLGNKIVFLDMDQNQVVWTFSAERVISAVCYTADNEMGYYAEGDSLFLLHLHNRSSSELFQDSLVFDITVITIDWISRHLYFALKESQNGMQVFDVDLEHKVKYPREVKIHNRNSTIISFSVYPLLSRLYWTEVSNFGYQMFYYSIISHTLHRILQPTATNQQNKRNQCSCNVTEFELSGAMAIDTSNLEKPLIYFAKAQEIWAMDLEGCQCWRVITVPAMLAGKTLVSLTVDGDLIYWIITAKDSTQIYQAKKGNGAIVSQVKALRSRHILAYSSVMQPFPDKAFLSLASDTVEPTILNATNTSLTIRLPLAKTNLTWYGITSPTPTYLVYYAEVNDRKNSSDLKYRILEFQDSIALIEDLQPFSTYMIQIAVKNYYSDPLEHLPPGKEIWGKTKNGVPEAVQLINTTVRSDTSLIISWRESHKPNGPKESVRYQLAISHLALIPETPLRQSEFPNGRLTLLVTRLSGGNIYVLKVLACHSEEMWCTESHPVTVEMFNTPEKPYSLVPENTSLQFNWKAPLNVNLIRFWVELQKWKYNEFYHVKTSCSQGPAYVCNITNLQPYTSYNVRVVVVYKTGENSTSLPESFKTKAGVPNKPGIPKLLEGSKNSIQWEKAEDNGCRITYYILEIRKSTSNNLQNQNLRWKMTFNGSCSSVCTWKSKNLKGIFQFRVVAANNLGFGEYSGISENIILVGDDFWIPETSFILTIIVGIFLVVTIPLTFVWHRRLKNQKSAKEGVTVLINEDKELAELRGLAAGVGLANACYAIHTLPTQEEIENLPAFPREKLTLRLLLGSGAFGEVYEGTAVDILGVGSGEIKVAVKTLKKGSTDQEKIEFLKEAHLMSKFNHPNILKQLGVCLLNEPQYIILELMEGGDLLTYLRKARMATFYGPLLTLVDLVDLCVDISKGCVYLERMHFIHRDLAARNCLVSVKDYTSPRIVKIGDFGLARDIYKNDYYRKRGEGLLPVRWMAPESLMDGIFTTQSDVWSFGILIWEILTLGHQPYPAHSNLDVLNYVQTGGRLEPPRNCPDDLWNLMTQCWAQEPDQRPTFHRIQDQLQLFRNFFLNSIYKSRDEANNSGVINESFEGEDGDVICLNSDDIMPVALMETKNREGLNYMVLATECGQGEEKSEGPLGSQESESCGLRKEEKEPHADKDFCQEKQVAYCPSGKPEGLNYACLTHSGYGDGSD
T2 sequence (P11802 whole entry): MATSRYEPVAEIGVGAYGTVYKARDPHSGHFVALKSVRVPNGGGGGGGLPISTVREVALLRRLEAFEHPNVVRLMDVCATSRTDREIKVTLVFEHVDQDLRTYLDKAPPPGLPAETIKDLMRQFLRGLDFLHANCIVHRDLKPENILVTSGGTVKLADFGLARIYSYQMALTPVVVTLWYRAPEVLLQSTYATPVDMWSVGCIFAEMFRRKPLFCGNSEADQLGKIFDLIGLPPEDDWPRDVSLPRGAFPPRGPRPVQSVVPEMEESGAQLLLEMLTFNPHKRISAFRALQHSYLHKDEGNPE
T2 sequence (P30281 whole entry partner): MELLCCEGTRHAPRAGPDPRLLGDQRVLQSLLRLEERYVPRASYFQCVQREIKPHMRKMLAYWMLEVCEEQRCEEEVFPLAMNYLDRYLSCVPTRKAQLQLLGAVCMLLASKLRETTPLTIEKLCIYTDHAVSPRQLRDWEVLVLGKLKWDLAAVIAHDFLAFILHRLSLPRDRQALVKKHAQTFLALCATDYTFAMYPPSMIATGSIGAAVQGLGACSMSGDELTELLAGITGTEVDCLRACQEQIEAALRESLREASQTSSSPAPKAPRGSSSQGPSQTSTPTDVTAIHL

Row | SMILES | IC50 [2] [nM] | PDI [3] | hydrodynamic diameter [3] [nm] | solubility [4] [mM] | IC50 [6] | other results
1 | Cc1cc(Nc2ncc(Cl)c(Nc3ccccc3S(=O)(=O)C(C)C)n2)c(OC(C)C)cc1C1CCNCC1 [Ceritinib] |  |  |  |  |  | c sol (water), solubility limit in water ([1]; values marked a from previous publication ref 21, listed as Ceritninib): 0.93 mM; c sol (water), solubility limit in water [1, 9]: ≤0.93^a mM
2 | COCCOCCOP(=O)(OCCOCCOC)N1CCC(c2cc(OC(C)C)c(Nc3ncc(Cl)c(Nc4ccccc4S(=O)(=O)C(C)C)n3)cc2C)CC1 [Cer‐OEG2] | 100 | 0.46 | 565 |  |  | 
3 | COCCOCCOCCOP(=O)(OCCOCCOCCOC)N1CCC(c2cc(OC(C)C)c(Nc3ncc(Cl)c(Nc4ccccc4S(=O)(=O)C(C)C)n3)cc2C)CC1 [Cer‐OEG3] | 45 | 0.05 | 279 |  |  | 
4 | COCCOCCOCCOCCOCCOCCOCCOCCOP(=O)(OCCOCCOCCOCCOCCOCCOCCOCCOC)N1CCC(c2cc(OC(C)C)c(Nc3ncc(Cl)c(Nc4ccccc4S(=O)(=O)C(C)C)n3)cc2C)CC1 [Cer‐OEG8] | 100 | 0.25 | 4.9 | 1.75 (≈ 2400 µg/mL) |  | half-life [5]: 50 h
5 | C[C@@H](Oc1cc(-c2cnn(C3CCNCC3)c2)cnc1N)c1c(Cl)ccc(F)c1Cl [Crizotinib] |  |  |  |  |  | c sol (water), solubility limit in water [1, 9]: ≤0.77 ^a mM
6 | COCCOCCOP(=O)(OCCOCCOC)N1CCC(n2cc(-c3cnc(N)c(O[C@H](C)c4c(Cl)ccc(F)c4Cl)c3)cn2)CC1 [Cri‐OEG2] | 50 | 0.03 | 151 |  |  | 
7 | COCCOCCOCCOP(=O)(OCCOCCOCCOC)N1CCC(n2cc(-c3cnc(N)c(O[C@H](C)c4c(Cl)ccc(F)c4Cl)c3)cn2)CC1 [Cri‐OEG3] | 45 | 0.02 | 3.7 | 19.1 (≈ 15700 µg/mL) |  | 
8 | COCCOCCOCCOCCOCCOCCOCCOCCOP(=O)(OCCOCCOCCOCCOCCOCCOCCOCCOC)N1CCC(n2cc(-c3cnc(N)c(O[C@H](C)c4c(Cl)ccc(F)c4Cl)c3)cn2)CC1 [Cri‐OEG8] | 140 | 0.36 | 3.3 | ≤ 4.62 |  | 
9 | CC(=O)c1c(C)c2cnc(Nc3ccc(N4CCNCC4)cn3)nc2n(C2CCCC2)c1=O [Palbociclib] |  |  |  |  |  | c sol (water), solubility limit in water [1, 9]: ≤0.02 ^a mM
10 | COCCOCCOP(=O)(OCCOCCOC)N1CCN(c2ccc(Nc3ncc4c(C)c(C(C)=O)c(=O)n(C5CCCC5)c4n3)nc2)CC1 [Pal‐OEG2] |  | 0.17 | 264 |  | 1000 nM | 
11 | COCCOCCOCCOP(=O)(OCCOCCOCCOC)N1CCN(c2ccc(Nc3ncc4c(C)c(C(C)=O)c(=O)n(C5CCCC5)c4n3)nc2)CC1 [Pal‐OEG3] |  | 0.74 | 5 | 8.71 (≈ 7140 µg/mL) | 215 to 270 nM and 215 nM | 
12 | COCCOCCOCCOCCOCCOCCOCCOCCOP(=O)(OCCOCCOCCOCCOCCOCCOCCOCCOC)N1CCN(c2ccc(Nc3ncc4c(C)c(C(C)=O)c(=O)n(C5CCCC5)c4n3)nc2)CC1 [Pal‐OEG8] |  | 0.33 | 596 | ≤ 3.16 | 215 to 270 nM and 270 nM | hydrodynamic diameter d [3]: 596 nm
13 | CN(C)C(=O)c1cc2cnc(Nc3ccc(N4CCNCC4)cn3)nc2n1C1CCCC1 [Ribociclib, reference compound] |  |  |  | 0.49 (≈ 213 µg/mL) |  | uptake in HeLa cells [7]: taken up by the cells
14 | COCCOCCOP(=O)(OCCOCCOC)N1CCN(c2ccc(Nc3ncc4cc(C(=O)N(C)C)n(C5CCCC5)c4n3)nc2)CC1 [Rib‐OEG2] |  | 0.22 | 2.5 | 12.3 (≈ 8840 µg/mL) | 110 nM | 
15 | COCCOCCOCCOP(=O)(OCCOCCOCCOC)N1CCN(c2ccc(Nc3ncc4cc(C(=O)N(C)C)n(C5CCCC5)c4n3)nc2)CC1 [Rib‐OEG3] |  | 0.15 | 1.8 | 13.5 (≈ 10900 µg/mL) | 370 nM | 
16 | COCCOCCOCCOCCOP(=O)(OCCOCCOCCOCCOC)N1CCN(c2ccc(Nc3ncc4cc(C(=O)N(C)C)n(C5CCCC5)c4n3)nc2)CC1 [Rib‐OEG4] |  | 0.35 | 92 | 9.33 (≈ 8350 µg/mL) | 12 nM | hydrodynamic diameter d [3]: 92 nm; uptake in HeLa cells [7]: taken up by the cells; release of native drug from prodrug in HeLa cells [8]: most of the native drug has been released
17 | COCCOCCOCCOCCOCCOCCOCCOCCOP(=O)(OCCOCCOCCOCCOCCOCCOCCOCCOC)N1CCN(c2ccc(Nc3ncc4cc(C(=O)N(C)C)n(C5CCCC5)c4n3)nc2)CC1 [Rib‐OEG8] |  | 0.22 | 64 | 1.52 (≈ 1900 µg/mL) | 400 nM | hydrodynamic diameter d [3]: 64 nm
